Data: patent US8993480B2, “Active ingredient combinations with insecticidal properties” (Bayer CropScience AG, priority 2006, dated 2015)

Experiments:
Format in all cases: in vivo
[1] = tested on: Myzus persicae; assay: Myzus persicae test (cabbage leaves, dip); conditions: cabbage leaves dipped; for Kill rate in % after 1 d, found: 4 ppm
Excerpt: (§1) The expected activity for a given combination of two active compounds can be calculated according to S. R. Colby, Weeds 15 (1967), 20-22) as follows:
(§2) If • X is the kill rate, expressed in % of the untreated control, when employing active compound A at an application rate of m g/ha or in a concentration of m ppm, • Y is the kill rate, expressed in % of the untreated control, when employing active compound B at an application rate of n g/ha or in a concentration of n ppm and • E is the kill rate, expressed in % of the untreated control, when employing active compounds A and B at application rates of m and n g/ha or in a concentration of m and n ppm, then
(§3) If the actual insecticidal kill rate is higher than the calculated one, the kill rates of the combination are superadditive, i.e. a synergistic effect is present. In this case, the kill rate that is actually observed has to be higher than the value, calculated using the formula above, for the expected kill rate (E).
(§4) To produce a suitable preparation of active compound, 1 part by weight of active compound is mixed with the stated amounts of solvent and emulsifier, and the concentrate is diluted with emulsifier-containing water to the desired concentration.
Cabbage leaves (Brassica oleracea) which are heavily infested by the green peach aphid (Myzus persicae) are treated by being dipped into the preparation of active compound of the desired concentration.
After the desired period of time, the kill in % is determined. 100% means that all aphids have been killed; 0% means that none of the aphids have been killed. The determined kill rates are entered into Colby's formula (see page 71).

[2] = tested on: Aphis gossypii; assay: Aphis gossypii test (cotton leaves, dip); conditions: cotton leaves dipped
Excerpt: as §1, §2, §3, §4
Cotton leaves (Gossypium hirsutum) heavily infested by the cotton aphid (Aphis gossypii) are treated by being dipped into the preparation of active compound of the desired concentration.
After the desired period of time, the kill in % is determined 100% means that all aphids have been killed; 0% means that none of the aphids have been killed. The determined kill rates are entered into Colby's formula (see page 71).

[3] = tested on: Tetranychus urticae; assay: Tetranychus urticae test (OP-resistent, dip application); conditions: bush beans dipped
Excerpt: as §1, §2, §3
To produce a suitable preparation of active compound, 1 part by weight of active compound is mixed with the stated amounts of solvent and emulsifier, and the concentrate is diluted with water to the desired concentrations. […]
After the desired period of time, the kill in % is determined. […]

Q: Which “Kill rate in % after 1 d, found” value [1] does the source give for `Cc1nn(C)c(/C(OC(=O)C(C)(C)C)=C(\C#N)c2ccc(C(C)(C)C)cc2)c1C` [cyenopyrafen] here?
A: 0%

Q: What does the source list for `CCOC(=O)OC1=C(c2cc(C)ccc2C)C(=O)N[C@]12CC[C@@H](OC)CC2` [spirotetramat]?
A: Kill rate in % after 6 d, found ([1]; 0.8 ppm): 10%; Kill rate in % after 6 d, found ([2]; 4 ppm): 15%; Kill rate in % after 7 d, found ([3]; 0.8 ppm): 25%

Q: Which “Kill rate in % after 6 d, found” value ([1]; 0.16 ppm) does the source give for `CNC(=O)c1cc(C#N)cc(C)c1NC(=O)c1cc(Br)nn1-c1ncccc1Cl` [compound (5)] here?
A: 5%

Q: What about the “Kill rate in % after 1 d, found” value [1] of the same compound?
A: 10%

Q: What about the “Kill rate in % after 6 d, found” value ([2]; 0.8 ppm) of the same compound?
A: 45%

Q: And the “Kill rate in % after 7 d, found” value ([3]; 0.16 ppm)?
A: 0%

Q: With `COCCOC(=O)C(C#N)(C(=O)c1ccccc1C(F)(F)F)c1ccc(C(C)(C)C)cc1` (stereo not drawn) [cyflumetofen] as the compound, how does the “Kill rate in % after 6 d, found” value ([2]; 0.16 ppm) read?
A: 0%
